Source: patent US20130071328A1, “Propynoic Acid Carbamoyl Methyl-Amides and Pharmaceutical Compositions and Methods Based Thereon” (UNIVERSITY OF SOUTHERN CALIFORNIA, priority 2011, published 2013)

Assays:
[1] = system: HT29 colon cancer cell line; test: MTT cytotoxicity assay, HT29; type: cell-based; settings: Homo sapiens, HT-29, 72 h exposure
In short: (§1)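 Cells were seeded, allowed to attach overnight, then exposed continuously to drug for 72 h. MTT (0.5 mg/mL final) was added for 4 h at 37 °C, formazan was dissolved in DMSO and absorbance read at 570 nm. IC50 came from log(drug concentration) versus percent cells killed, triplicate.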

[2] = system: HCT116 p53^+/+ colon cancer cell line; test: MTT cytotoxicity assay, HCT116 p53+/+; type: cell-based; settings: Homo sapiens, HCT-116, 72 h exposure
In short: as §1

[3] = system: HCT116 p53^−/− colon cancer cell line; test: MTT cytotoxicity assay, HCT116 p53-/-; type: cell-based; settings: Homo sapiens, HCT-116, 72 h exposure
In short: as §1

[4] = system: HEY ovarian cancer cell line; test: Cytotoxicity assay, HEY; type: cell-based; settings: Homo sapiens; MTT, 72 h exposure (Table 2)
In short: as §1

[5] = system: UMUC3 bladder cancer cell line; test: MTT cytotoxicity assay, UMUC3; type: cell-based; settings: Homo sapiens, 72 h exposure
In short: as §1

[6] = system: 5637 bladder cancer cell line; test: MTT cytotoxicity assay, 5637; type: cell-based, human; settings: Homo sapiens, 72 h exposure
In short: as §1

[7] = system: doxorubicin-resistant NCI/ADR-RES ovarian cancer cell line; test: Cytotoxicity assay, NCI/ADR-RES; type: cell-based; settings: Homo sapiens, MTT, 72 h exposure (Table 2)
In short: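 Cells attached overnight, then continuously exposed to drug for 72 h. MTT (0.5 mg/mL final) added 4 h at 37 °C, formazan dissolved in DMSO, absorbance at 570 nm, triplicates; IC50 from log concentration versus % cells killed.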

MDA-MB-435 cells [8] = test: Apoptosis assay, annexin V/propidium iodide flow cytometry; type: cell-based, human
Method: To quantify drug-induced apoptosis, annexin V/propidium iodide staining was performed and analyzed by flow cytometry. MDA-MB-435 cells were treated with 10 μM compound 1, 2, or 4 for 24 and 48 h. After treatment, both floating and adherent cells were combined and subjected to annexin V/propidium iodide staining using an annexin V-FITC apoptosis detection kit (Oncogene Research Products, San Diego, Calif.) according to manufacturer's recommendations. Untreated control cells (48 h) were maintained in parallel to drugtreated groups. Double staining was used to distinguish between viable, early apoptotic, and necrotic or late apoptotic cells. The resulting fluorescence (FITC-A channel for green fluorescence and PE-A channel for red fluorescence) was measured by flow cytometry using a BD LSRII flow cytometer (BD Biosciences, San Jose, Calif.).

p53 = test: Western blotting of p53 protein level; type: cell-based, human; settings: MDA-MB-435 cells, 1 μM, 24 to 72 hours
Method: (§2) Cells were detached using 1×trypsin-EDTA solution and collected by centrifugation at 1200 rpm for 5 min. Cells were then lysed in 80 μL of 1× cell lysis buffer (50 mM Tris-HCl, pH 7.5, 150 mM NaCl, and 1% NP-40) and pelleted by centrifugation at 14,000 rpm for 20 min at 4° C. Protein concentration of the whole cell lysates was measured using BCA protein assay and equal amounts of total protein were resolved on a 10% tris-glycine gel via SDS-PAGE. The separated proteins were electro-blotted onto nitrocellulose membrane and blocked in 5% BSA/PBS for 1 h at room temperature. The membrane was probed with anti-p53 (SC-126, Santa Cruz Biotechnology Inc.), anti-caspase 9 (Cat. no. 9508; Cell Signaling Technology), anti-a-tubulin (SC-5286, Santa Cruz Biotechnology Inc.), and anti-GAPDH(Y3322GAPDH, Biochain Institute, Inc.) antibodies at 4 C overnight. Horseradish peroxidase-conjugated secondary antibodies (Invitrogen, Carlsbad, Calif.) in combination with SuperSignal Dura (ThermoFisher, Rockford, Ill.) enhanced chemiluminescence (ECL) solutions were used to visualize proteins of interest with a ChemiDoc Imaging system (Bio-Rad, Hercules, Calif.).

caspase-9 = test: Western blotting of full-length caspase-9 protein level; type: cell-based, human; settings: MDA-MB-435 cells, 1 μM, after 24 hours, maintained up to 72 hours
Method: as §2

SOD1 = test: Kinexus 628-antibody microarray; type: cell-based, human; settings: MDA-MB-435 cells, 0.1 μM, 24 h
Text: To better understand the mechanisms of action of this class of novel PACMA compounds, we subjected cell lysates from untreated and compound 1-treated MDA-MB-435 cells to the Kinexus 628-antibody microarray analysis in search of potential signaling molecules; 350 pan-specific and 270 phospho-site antibodies were included to track changes in protein expression and phosphorylation status. The cell lysates were run in parallel on the Kinexus antibody chip and the differential binding of dye-labeled proteins was detected and quantified. Proteins with significant expression changes were then identified and used as the basis for signaling pathway interpretation.
MDA-MB-435 cells were treated with 0.1 μM compound 1 for 24 h. After treatment, cells were washed with ice-cold PBS to remove residual medium. Cells were then lysed in 200 μL of lysis buffer (20 mM MOPS, pH 7.0, 2 mM EGTA, 5 mM EDTA, 30 mM sodium fluoride, 60 mM β-glycerophosphate, pH 7.2, 20 mM sodium pyrophosphate, 1 mM sodium orthovanadate, 1 mM phenylmethylsulfonylfluoride, 3 mM benzamidine, 5 μM pepstatin A, 10 μM leupeptin, 1% Triton X-100, 1 mM dithiothreitol) and collected into a microcentrifuge tube. […] The supernatants were then transferred to a cleanmicrocentrifuge tube, and the protein concentrations were measured using BCA protein assay. […]

MDA-MB-435 cells [9] = test: Mitochondrial superoxide production (MitoSOX Red); type: cell-based, human; settings: IC50 or 3×IC50, 24 hours
Method: After drug treatments, a solution of 5 μM MitoSOX Red mitochondrial superoxide indicator (Invitrogen, Carlsbad, Calif.) was added, and cells were incubated for 10 min at 37° C. Cells were then washed three times with Hank's balanced salt solution (HBSS) to remove excess MitoSOX. After washing, cells were either observed under the fluorescence microscope or collected by trypsinization, washed twice with HBSS, and measured for superoxide production using a BD LSRII flow cytometer (BD Biosciences, San Jose, Calif., USA). Data were analyzed with the BD FACSDiva software package (BD Biosciences, San Jose, Calif., USA).

`C#CC(=O)N(c1cc(OC)cc(OC)c1)C(C(=O)NC1CCCCC1)c1ccc(OC)cc1` (stereo not drawn) [Compound 1, N-[2-(Cyclohexylamino)-1-(4-methoxyphenyl)-2-oxoethyl]-N-(3,5-dimethoxyphenyl)Propynamide] was tested, and the IC50 [1] was 6.3 ± 1.5 µM, the IC50 [2] was 12.5 ± 2.1 µM and the IC50 [3] was 11 µM. It also gave an IC50 [4] of 4.4 ± 3 µM, an IC50 [5] greater than 20 µM and an IC50 [6] of 2.2 ± 0.2 µM. The IC50 [7] was 0.3 µM, the “induction of early apoptosis” value (MDA-MB-435 cells [8]; 10 μM, 24 hours) was “failed to induce early apoptosis” and the “increase in early apoptotic cells” value (MDA-MB-435 cells [8]; 10 μM, 48 h) was 8%. For the same compound, the “percentage of late apoptotic cells” value (MDA-MB-435 cells [8]; 10 μM, 48 hours) was 35%, the induction of apoptosis (MDA-MB-435 cells [8]; 24 and 48 hours) was “induce apoptosis” and the p53 protein level (p53) was “up-regulated”. The “decrease in full-length caspase-9 protein level” value (caspase-9) was 2 fold, the SOD1 expression (SOD1) was “up-regulated” and the “mitochondrial superoxide production, flow cytometry” value (MDA-MB-435 cells [9]) was “induce significant amounts of superoxide”.
